From patent US10533228B2, “3.beta-hydroxysteroid dehydrogenase in steroid dependent disease” (THE CLEVELAND CLINIC FOUNDATION, priority 2013, dated 2020)
Where a SMILES comes first, the peptide text is derived from it. The star is where a group is joined. Cbz = O=C(OCc1ccccc1)*

Legend:
3βHSD1 (367N) = assay: Western blot of endogenous 3βHSD1 protein in LAPC4 after degradation inhibitor; format: cell-based, human; details: LAPC4, 10 μM
From the text: For Western blot analysis, whole cell protein extract was harvested using RIPA buffer (Sigma-Aldrich) with protease inhibitor cocktail (Roche). […] The protein was transferred to a PVDF membrane and was detected by mouse anti-3βHSD1 (Sigma), rabbit anti-HA (Santa Cruz Biotechnology, Santa Cruz, Calif.), and mouse anti-β-actin (Sigma) antibodies. […]

3βHSD1 (367T) = assay: Western blot of endogenous 3βHSD1 protein in LNCaP after proteasome inhibitor; format: cell-based, human; details: 10 μM, 8 hours
Method: For Western blot analysis, whole cell protein extract was harvested using RIPA buffer (Sigma-Aldrich) with protease inhibitor cocktail (Roche). Protein concentration was determined by BCA Protein Assay Reagent (Thermo Scientific, Rockford, Ill.), and 20 μg protein was resolved by 8.5% SDS-PAGE. The protein was transferred to a PVDF membrane and was detected by mouse anti-3βHSD1 (Sigma), rabbit anti-HA (Santa Cruz Biotechnology, Santa Cruz, Calif.), and mouse anti-β-actin (Sigma) antibodies. To determine the role of the ERAD pathway in 3βHSD1 stability, cells were treated with Eeyarestatin (Sigma) for 6 hours before harvesting cell lysate.

[1] = test system: polyubiquitinated 3βHSD1 (367N); assay: Anti-ubiquitin immunoprecipitation in LAPC4; format: cell-based, human; details: LAPC4, 10 μM; 8 hours
Method: Pre-cleared lysate was incubated with mouse anti-ubiquitin antibody (Santa Cruz) at 4° C. for 3 hours and followed by adding 40 μl of Protein AG UltraLink Resin (Thermo Scientific) for another hour for pull down. After extensive washing with lysis buffer, the purified proteins were eluted with 25 μl 2×SDS sample buffer and analyzed by Western blot.

[2] = test system: polyubiquitinated 3βHSD1(367T); assay: Anti-ubiquitin immunoprecipitation in LNCaP; format: cell-based, human; details: 10 uM, 8 hours
3βHSD1 = assay: Lentiviral shRNA knockdown, 3βHSD1 immunoblot in LNCaP; format: cell-based, human; details: stable lentiviral expression
Method: Lentiviral vector construction, viral packaging and infection were performed as previously described. Chang et al., Proc. Natl. Acad. Sci. USA, 108, 13728-13733 (2011). Briefly, […] miR30-styled shRNA sequences (#1: 5′-[…] […]-3′ (SEQ ID NO: 9); #2: 5′-[…] […]-3′ (SEQ ID NO: 10)) against HSD3B1 were PCR amplified and cloned into the pGIPZ vector (Open Biosystems, Huntsville, Ala.) and confirmed by sequencing. Virus packaging was carried out in 293T cells by co-transfecting 10 μg each of pGIPZ, pMD2.G, and psPAX2 vector. To increase transduction efficiency, 30 mL supernatant containing lentiviral particles were collected, filtered with a 0.45 μm nitrocellulose membrane and concentrated by ultracentrifugation at 19,000 rpm for 2 hours and 20 minutes at room temperature without brake. […]
For Western blot analysis, whole cell protein extract was harvested using RIPA buffer (Sigma-Aldrich) with protease inhibitor cocktail (Roche). Protein concentration was determined by BCA Protein Assay Reagent (Thermo Scientific, Rockford, Ill.), and 20 μg protein was resolved by 8.5% SDS-PAGE. The protein was transferred to a PVDF membrane and was detected by mouse anti-3βHSD1 (Sigma), rabbit anti-HA (Santa Cruz Biotechnology, Santa Cruz, Calif.), and mouse anti-β-actin (Sigma) antibodies. […]

LNCaP xenografts = assay: LNCaP xenograft CRPC growth in orchiectomized mice with DHEA pellet; format: in vivo, mouse; details: orchiectomy and DHEA pellet
Method: Mouse xenograft studies and abiraterone acetate treatment were done as described in detail previously. Li et al., Clin Cancer Res 18, 3571-3579 (2012). Briefly, male NOD/SCID mice 6 to 8 weeks of age were obtained from the UT Southwestern Animal Resources Center, underwent surgical orchiectomy and a DHEA pellet (5 mg 90-day sustained-release) implantation and 2 days later underwent subcutaneous injection with 7×10^6 LAPC4 cells. Tumors reaching 300 mm^3 volume were treated with intraperitoneal abiraterone acetate or vehicle (n=8 mice per treatment) once daily for 5 days per week for 4 weeks. Tumors were fresh frozen upon mouse sacrifice. For the studies of mutant 3βHSD1 knockdown, LNCaP cells (7×10^6) stably expressing shHSD3B1 #1, #2 and shCTRL were subcutaneously injected with matrigel into eugonadal NOD/SCID mice (n=15 per group). Mice with tumors reaching 100 mm^3 volume underwent surgical castration and DHEA pellet implantation. Time from castration to tumor volume ≥600 mm^3 was assessed. For the comparison between wild type and mutant 3βHSD1, LAPC4 cells (7×10^6) stably expressing pLVX-Tight-Puro-HSD3B1 (367N) or pLVX-Tight-Puro-HSD3B1 (367T) were subcutaneously injected into surgically orchiectomized NOD/SCID mice supplemented with a DHEA (5 mg 90-day sustained-release) pellet. Tumor diameters were measured by digital calipers two or three times per week.

Molecule: CC1(C)C(N(O)C(=O)Nc2ccc(Cl)cc2)N(c2ccc(Cl)cc2)C(=O)N1CC(=O)N/N=C/C=C/c1ccc([N+](=O)[O-])o1 (stereo not drawn) [Eeyarestatin I]
- endogenous 3βHSD1 protein (3βHSD1 (367N)): increases endogenous 3βHSD1 protein

Molecule: CC(C)C[C@@H](C=O)NC(=O)[C@H](CC(C)C)NC(=O)[C@H](CC(C)C)NC(=O)OCc1ccccc1 [MG132] (Cbz-Leu-Leu-Leu-aldehyde)
- 3βHSD1 (367N) protein level (3βHSD1 (367N); 8 hours): reverses 3βHSD1 (367N) protein loss
- 3βHSD1 (367T) protein level (3βHSD1 (367T)): no 3βHSD1 (367T) protein increase
- polyubiquitinated 3βHSD1 (367N) protein [1]: increase in polyubiquitinated 3βHSD1 (367N) protein
- polyubiquitinated 3βHSD1(367T) protein [2]: no increase in polyubiquitinated 3βHSD1(367T) protein

B1: shHSD3B1 #1: lentiviral miR30-styled shRNA against HSD3B1 (SEQ ID NO: 9) (nucleic acid)
chain: TGCTGTTGACAGTGAGCGACCTCATACAGAAAGTGACAAGTAGTGAAGCCACAGATGTACTTGTCACTTTCTGTATGAGGCTGCCTACTGCCTCGGA
- 3βHSD1 protein expression (3βHSD1): silences 3βHSD1 protein expression
- CRPC growth (days from orchiectomy to tumor volume ≥600 mm^3) (LNCaP xenografts): blocks CRPC growth

B2: shHSD3B1 #2: lentiviral miR30-styled shRNA against HSD3B1 (SEQ ID NO: 10) (nucleic acid)
chain: TGCTGTTGACAGTGAGCGAAGAGGAAAGACCATGTGGTTTTAGTGAAGCCACAGATGTAAAACCACATGGTCTTTCCTCTGTGCCTACTGCCTCGGA
- 3βHSD1 protein expression (3βHSD1): silences 3βHSD1 protein expression
- CRPC growth (days from orchiectomy to tumor volume ≥600 mm^3) (LNCaP xenografts): blocks CRPC growth
